In PubChem BioAssay (NCI):
Several values for one entry are separate records, joined by “and”; a condition that tells them apart may be missing. Equal values may be shown once.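 96-well plates; 48 h exposure; 5 concentrations. Endpoints by linear interpolation between flanking doses. Not reached: highest tested concentration assigned. Abbreviation: GI50, concentration required for 50% inhibition of growth. TGI: concentration producing complete growth inhibition.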

Columns and labels:
Experiment in all cases: inhibition of tumour cell growth, NCI panel, 48 h
[1] = tested on: LOX IMVI melanoma
[2] = tested on: MDA-MB-231 breast
[3] = tested on: NCI-H226 lung
[4] = tested on: NCI-H522 lung
[5] = tested on: PC-3 prostate
[6] = tested on: SF-539 CNS
[7] = tested on: SK-MEL-5 melanoma
[8] = tested on: SNB-19 CNS
[9] = tested on: SW-620 colon
[10] = tested on: UACC-62 melanoma

Row | SMILES | GI50 [1] | TGI [1] [µM] | GI50 [2] | TGI [2] | GI50 [3] | TGI [3] | GI50 [4] | TGI [4] [µM] | GI50 [5] [µM] | GI50 [6] [µM] | TGI [6] | GI50 [7] | GI50 [8] | GI50 [9] | GI50 [10] [µM] | TGI [10] [µM] | TGI [5] [µM] | TGI [7] [µM] | TGI [8] [µM] | TGI [9] [µM]
1 | Oc1[nH]c2c(Br)cccc2c1C1=Nc2ccccc2/C1=N/OCCN1CCCC1 | 0.626 µM | 2.45 | 1.31 µM and 1.21 µM | 4.95 µM and 7.97 µM | 0.948 µM and 0.708 µM | 3.05 µM and 29.1 µM | 0.847 µM | 3.4 | 0.824 | 0.557 | 2.05 µM | 1.06 µM and 0.751 µM | 1.93 µM | 1.49 µM and 0.542 µM | 0.973 | 2.45 | – | – | – | –
2 | COc1cc(Cl)cc(-c2nn(-c3cccc(NC(=O)Nc4cc(C(F)(F)F)cc(C(F)(F)F)c4)c3)cc2-c2ccncc2)c1 | 0.513 µM | 2.29 | 0.726 µM | 2.26 µM | 0.965 µM | 7.67 µM | 0.302 µM | 1.32 | 0.311 | 1.48 | 3.61 µM | 1.09 µM | 0.612 µM | 0.422 µM | 0.416 | 1.71 | 1.62 | 2.33 | 12.7 | 2.72
3 | CC(=O)OCC(=O)[C@@]12OC(C)(C)O[C@@H]1C[C@H]1[C@@H]3CC=C4C[C@@H](O)CC[C@]4(C)[C@H]3CC[C@@]12C | – | > 100 | – | > 100 µM | – | > 100 µM | – | > 100 | – | – | 74.7 µM | – | – | – | – | > 100 | > 100 | > 100 | > 100 | > 100
4 | CC(C)COCC(CN(Cc1ccccc1)c1ccccc1)N1CCCC1 (stereo not given) | 2.48 µM | 8.2 | 1.84 µM | 5.22 µM | 2.28 µM | 9.48 µM | 1.61 µM | 3.35 | 3.04 | 6.46 | 19.4 µM | 1.65 µM | 3.07 µM | 3.54 µM | 2.87 | 12.5 | 13.9 | 3.01 | 12.2 | 15.2
5 | Cc1cc2[nH]c(=O)c3c4ccccc4cn3c2cc1C | 2.04 µM | 4.02 | 8.34 µM | 23.7 µM | 15.1 µM | 36.7 µM | 14.5 µM | 31.1 | 12 | 11.2 | 27 µM | 13.6 µM | 16.3 µM | 3.83 µM | 16.7 | 31.9 | 25.4 | 29.6 | 36.7 | 33.2
6 | Cc1ccc2c(c1)C(C)Cc1c(Cl)ncnc1N2C (stereo not given) | 1.8 µM | 3.78 | 2.55 µM | 6.84 µM | 2.03 µM | 5.34 µM | 2.67 µM | 8.03 | 3.62 | 3.85 | 19 µM | 1.86 µM | 4.89 µM | 3.2 µM | 3.72 | 21.8 | 72.1 | 3.41 | 49.7 | 13.3
7 | CNCCNc1c2c(c(NCCNC)c3[nH]ccc13)C(=O)c1ccccc1C2=O | < 0.0231 µM | 0.0717 | 0.1 µM | 0.33 µM | 0.215 µM | 1.84 µM | 0.117 µM | 0.339 | 0.0593 | 0.458 | 1.07 µM | 0.421 µM | 4.58 µM | 0.299 µM | 0.231 | 1.05 | 0.309 | 0.901 | 11.5 | 0.804
8 | O=C(O)C1C(C(=O)O)C23CC2(C(=O)O)C2(C(=O)O)CCC3=C3CCCC312 (stereo not given) | – | 28.1 | – | 41 µM | – | 27.5 µM | – | 16 | – | – | 34.8 µM | – | – | – | – | 23.5 | 31.2 | 18.2 | 73.6 | > 100
9 | CCN1C(=O)N(c2ccccc2)C2NC(=S)N(/N=C/C=C/c3ccccc3)C21 (stereo not given) | 0.647 µM | > 100 | 0.715 µM | > 100 µM | 2.79 µM | > 100 µM | 0.133 µM | 6.6 | 0.394 | 0.246 | 0.854 µM | 0.463 µM | 0.472 µM | 0.38 µM | 0.197 | > 100 | > 100 | > 100 | > 100 | > 100
10 | O=P(CCCCP(=O)(c1ccccc1)c1ccccc1)(c1ccccc1)c1ccccc1.[Cl][Sn]([Cl])([c]1ccccc1)[c]1ccccc1 | 1.29 µM | 5.45 | 0.626 µM | 2.11 µM | 5.07 µM | 11.3 µM | 0.0514 µM | 0.208 | 2.29 | 1.43 | 3.64 µM | 1.9 µM | 4.18 µM | 0.696 µM | 1.59 | 3.3 | 6.04 | 4.07 | 18 | 5.59
11 | COc1cc(/C=C/C(=O)c2c(C)nc3ccccc3c2/C=C/c2ccc(C)cc2)cc(OC)c1OC | 1.45 µM | 2.76 | 2.14 µM | 5.23 µM | 2.18 µM | 6.11 µM | 1.83 µM | 5.56 | 2.59 | 1.92 | 3.69 µM | 1.75 µM | 1.69 µM | 3.09 µM | 1.6 | 3.08 | 8.76 | 3.24 | 3.14 | > 100
12 | C=C1C(=O)O[C@H]2[C@H]1CCC(/C=N/c1ncc(Br)cc1N)=C\CC[C@@]1(C)O[C@@H]21 | 1.71 µM | 3.46 | 1.38 µM | 3.46 µM | 2.88 µM | 11.7 µM | 0.781 µM | 2.6 | 2.26 | 2.06 | 6.82 µM | 1.55 µM | 10.1 µM | 1.33 µM | 1.87 | 4.22 | 11.1 | 3.01 | 24.7 | 3.3
13 | CCN1Cc2c(ccc(F)c2C#N)O[C@@H](C)CNC(=O)c2c(N)nn3ccc1nc23 | 1.13 µM | 6.9 | 1.32 µM | 4.21 µM | 3.79 µM | 18.6 µM | 5.04 µM | 41.3 | 1.64 | 3.46 | 15.8 µM | 3.46 µM | 8.93 µM | 3.87 µM | 0.632 | 3.65 | 26.6 | 15.2 | 39.3 | 80.2
14 | COc1cccc(OCCCN)c1-c1cc(Nc2cnc(C#N)cn2)n[nH]1 | 0.0166 µM and 0.0254 µM | 9.07 | 0.933 µM | 11.9 µM | 2.23 µM | 8.39 µM | 0.261 µM and 0.0454 µM | 2.06 | 2.41 | 0.00366 | 0.0627 µM and 0.12 µM | 0.0318 µM and 0.0224 µM | 0.0188 µM and 0.0256 µM | 0.0573 µM and 0.054 µM | 0.0231 | – | 21.5 | 1.59 | 19.5 | 12
15 | O=c1[nH]c(=O)c2cc(C3CC(O)C(CO)O3)ccc2[nH]1 (stereo not given) | > 100 µM | > 100 | > 100 µM | > 100 µM | > 100 µM | > 100 µM | > 100 µM | > 100 | > 100 | > 100 | > 100 µM | > 100 µM | > 100 µM | > 100 µM | > 100 | > 100 | > 100 | > 100 | > 100 | > 100
16 | COc1ccccc1N1CCN(CCc2c[nH]c3cc4c(cc23)OCO4)CC1 | 11.6 µM | 35.7 | 21.4 µM | 77.7 µM | 29.9 µM | > 100 µM | 44.2 µM | > 100 | 20 | 20.2 | > 100 µM | 13.2 µM | 26 µM | 22 µM | 32.2 | > 100 | > 100 | 26.2 | > 100 | > 100
17 | CCCCCCCCCCC(C(O)c1ccccc1)N1CCCCC1 (stereo not given) | 1.67 µM | 3.03 | 1.76 µM | 3.69 µM | 2.91 µM | 12.4 µM | 1.94 µM | 3.91 | 3.43 | 2.06 | 3.84 µM | 1.69 µM | 1.84 µM | 1.7 µM | 2.01 | 4.01 | 12.4 | 3.06 | 3.95 | 3.21
18 | C=C1C(=O)O[C@H]2[C@H](OC(C)=O)[C@@H](C)CCC/C(C)=C/CC[C@@]3(C)O[C@@H]3C[C@@H]12 | – | 3.9 | – | 10.6 µM | – | 3.32 µM | – | 3.9 | – | – | 13.9 µM | – | – | – | – | 9.43 | > 47.5 | 15.5 | 34 | > 23.1
19 | S=c1ssc(Oc2ccccc2)c1Cl | 5.61 µM | 22.7 | 14.2 µM | 29.6 µM | 27 µM | 73.8 µM | 23.2 µM | 42.5 | 10.2 | 17.3 | 33.8 µM | 17.3 µM | 31.6 µM | 1.9 µM | 14 | 26.9 | 23.9 | 35.1 | 79.6 | 5.24
20 | CCCCCCCCCCCCOC1C(C(COC2OC(C3COC(C)(C)O3)C3OC(C)(C)OC23)NC(=O)NS(=O)(=O)c2ccccc2)OC2OC(C)(C)OC21 (stereo not given) | 5.22 µM | 19.7 | 9.94 µM | 24.3 µM | 6 µM | 45.8 µM | 6.56 µM | 32.8 | 3.27 | 2.53 | 6.54 µM | 2.51 µM | 9.18 µM | 5.14 µM | 3.27 | 13.7 | 13.8 | 6.34 | 40 | 18.5
21 | COc1ccc(/C=C(\C#N)n2nnc3ccccc32)cc1 | 0.548 µM | 6.72 | 0.525 µM | 3.47 µM | 1.11 µM | 21.2 µM | 0.0336 µM | > 34.1 | 0.293 | 0.252 | 0.869 µM | 0.282 µM | 0.361 µM | 0.0603 µM | 0.0893 | 19.7 | > 60 | 2.89 | 13.3 | > 100
22 | O=C(O)c1cc(-c2ccncc2)nc2ccccc12 | – | > 100 | – | > 100 µM | – | > 100 µM | – | > 100 | – | – | > 100 µM | – | – | – | – | > 100 | > 100 | > 100 | > 100 | > 100
23 | COc1ccc(C(=O)/C=C/c2ccc3c(c2)OCO3)c(OCc2ccccc2)c1 | – | > 100 | – | > 100 µM | – | > 100 µM | – | > 100 | – | – | > 100 µM | – | – | – | – | > 100 | > 100 | > 100 | > 100 | > 100
24 | FC(F)(F)c1ccc(C#Cc2ccccc2C#Cc2ccccc2)cc1 | 26.2 µM | 55.3 | 26.5 µM | 62.7 µM | 30.1 µM | 99.9 µM | 21.4 µM | 45.4 | 51.5 | 41.4 | > 100 µM | 32.7 µM | 69.3 µM | 30.6 µM | 92.9 | > 100 | > 100 | > 100 | > 100 | > 100
25 | COc1ccc(S(=O)(=O)Nc2cc(/C=C\c3cc(OC)c(OC)c(OC)c3)ccc2OC)cc1 | 0.272 µM | > 100 | 0.399 µM | > 100 µM | 12.8 µM | > 100 µM | 0.0204 µM | 0.0564 | 0.124 | 0.126 | 0.713 µM | 0.0488 µM | 0.352 µM | 0.0785 µM | 0.049 | > 100 | > 100 | 0.778 | > 100 | > 100
26 | COC(=O)C1=C(C(=O)OC)SC(=C(Cl)C(=S)Nc2ccccc2O)S1 | 12.9 µM | 24.5 | 10.6 µM | 25.9 µM | 13.9 µM | 39.3 µM | 10.3 µM | 23.3 | 22.2 | 15.9 | 39 µM | 19.1 µM | 18 µM | 26.4 µM | 8.84 | 18.6 | > 50 | > 50 | > 50 | > 50
